{
  "source": "patent US7449194B2",
  "about": "“Antimicrobial body covering articles” (priority 2002, dated 2008)",
  "origin": "cited, not measured here",
  "details": "in water; 21° C.",
  "data": [
    {"smiles": "[O][Cl+][O-]", "note": "[chlorine dioxide]", "values": [
      {"measurement": "partition coefficient", "value": 40}
    ]}
  ]
}
